# Test results from patent US9469878B2, “Methods of treating cancer comprising targeting NQO1” (The Board of Regents of the University of Texas System, priority 2010, dated 2016).
# Key:
# PC-3 cells [1] = assay: Intracellular NAD+ and ATP levels; type: cell-based, human; settings: β-lap exposure
# Procedure: ATP levels were analyzed from whole-cell extracts using CellTiter-Glo Luminescent Cell Viability Assays (Promega, Madison, Wis.) following the manufacture's instructions. Data were graphed as means±SE from at least three independent experiments in triplicates.
# PC-3 cells [2] = assay: Apoptosis by TUNEL assay; type: cell-based, human; settings: 2 μM β-lap alone, NQO1-expressing PC-3 cells
# Procedure: Apoptosis was quantified using ApoDirect™ (TUNEL) assays from BD Pharmingen as described (Bey et al., 2007, Proc. Natl. Acad. Sci. USA, 104:11832-837). Samples were analyzed by using FC-500 flow cytometer (Beckman Coulter Electronics, Brea, Calif.) and Elite acquisition software. Data were expressed as means±SE from three independent experiments.
# PC-3 cells [3] = assay: Relative DNA cell survival assay, β-lap with or without IR; type: cell-based, human; settings: for Equivalent dose of IR / Equivalent dose of β-Lap: Machado's model
# Procedure: Relative DNA cell survival assays were assessed after various treatments. Briefly, cells were seeded at 5×10^3 per well in 48-well plates and allowed to attach overnight. […] DNA content was then determined by Hoeschst 33258 dye staining and fluorescence detection using a plate reader (Perkin-Elmer, Boston, Mass.) as described. Relative survival assays after combined treatment were confirmed by colony-forming ability assays as described. Results were reported as means±SE from at least three independent experiments. For relative survival data, different combinations of IR+β-lap exposures were fit with simple multi-target models in SigmaPlot for Windows Version 11.0. For synergy, a statistical definition of synergy (48) was used and calculations were performed by fitting experimental data with the Machado and Robinson model using the R code (47). The equitoxic doses listed in Table 1 were calculated by the parameters of the model of Machado and Robinson obtained in fitting.
# NQO1 = NQO1 (Homo sapiens, UniProt P15559); assay: NQO1 enzyme assays using β-lapachone or the standard menadione substrates; type: biochemical; set-up: S9 Supernatants were prepared from cells in mid-log to late log phase growth; endogenous in cells; host or cells: cancer cell lines, mostly from a non-small cell lung cancer panel; S9 supernatants; settings: β-lapachone as substrate, H1993 *1/*1
# Chain of NQO1 (P15559 whole entry): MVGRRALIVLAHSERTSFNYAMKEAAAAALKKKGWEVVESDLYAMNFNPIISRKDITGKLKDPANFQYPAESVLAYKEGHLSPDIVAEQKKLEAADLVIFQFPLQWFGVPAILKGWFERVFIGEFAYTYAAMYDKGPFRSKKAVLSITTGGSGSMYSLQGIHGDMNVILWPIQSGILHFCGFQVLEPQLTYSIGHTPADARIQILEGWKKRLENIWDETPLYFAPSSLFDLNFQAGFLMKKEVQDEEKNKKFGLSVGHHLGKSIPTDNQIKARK
# Procedure: S9 Supernatants were prepared from cells in mid-log to late log phase growth. […] The cell suspensions were sonicated on ice four times, using 10-s pulses, and then centrifuged at 14,000×g for 20 min. The S9 supernatants were aliquoted into microcentrifuge tubes and stored at −80° C. until used. A 1× protease inhibitor cocktail was added to prevent enzyme activity degradation. […] Menadione was used as the electron acceptor. NADH was used as the electron donor.
# NQO1 activity was measured using NADH (200 μM) as the immediate electron donor and menadione (10 μM) as the intermediate electron acceptor. […] Biochem. Biophys. […] NADH: cytochrome b5 reductase was measured using NADH (200 μM) as the electron donor, and […] was measured using NADPH (200 μM) as electron donor (45) in a Beckman DU 640 spectrophotometer (Beckman Coulter, Fullerton, Calif.). Reactions were carried out at 37° C. and were initiated by the addition of S9 supernatants. Varying amounts of supernatants, from 10 to 40 μL, were used to ensure linearity of rates with protein concentration. […] Results shown are the average enzyme activity for three separate cell extractions±S.D. or both values from duplicate experiments.
# Cell lines, mostly from a 5-panel nonsmall cell lung cancer panel from the UT Southwestern SPORE, were assessed for NQO1 polymorphism status and then monitored for NQO1 enzyme assays using β-lapachone or the standard menadione substrates. […] NQO1*2/*2 and *3/*3 polymorphisms were detected from NQO1 *1/*1 wild-type sequences by PCR-RFLP. Genomic DNA was extracted from the cells using Qiagen spin columns. Using previously described oligonucleotide primers, PCR products underwent gel electrophoresis. Final genotyping was determined based on the size and pattern of separated bands diagnostic for *1/*1 (wild-type), or polymorphic *2/*2 or *3/*3 NQO1 polymorphisms.
# NQO1+ human cancer cells = settings: cited from earlier work
structure (smiles),measurement,setting,value
"CC1(C)CCC2=C(O1)c1ccccc1C(=O)C2=O [β-Lap, 3,4-dihydro-2,2-dimethyl-2H-naphtho[1,2-b]pyran-5,6-dione]",Time to exhaustion of NAD+ and ATP levels,PC-3 cells [1],≤ 120 min
same,Apoptosis,PC-3 cells [2],5±2%
same,Exposure time sufficient to achieve maximal cytotoxicity,PC-3 cells [3]; 4 μM β-lap,~120 min
same,β-lap dose with the same effect as the combination,PC-3 cells [3]; 1 Gy+1 μM β-lap,4 µM
same,Equivalent dose of IR,PC-3 cells [3]; IR 0 Gy + β-Lap 1 μM,0.6 Gy
same,Equivalent dose of β-Lap,PC-3 cells [3]; IR 0 Gy + β-Lap 1 μM,1 µM
same,Equivalent dose of IR,PC-3 cells [3]; IR 0 Gy + β-Lap 2 μM,1.2 Gy
same,Equivalent dose of β-Lap,PC-3 cells [3]; IR 0 Gy + β-Lap 2 μM,2 µM
same,Equivalent dose of IR,PC-3 cells [3]; IR 0 Gy + β-Lap 3 μM,1.7 Gy
same,Equivalent dose of β-Lap,PC-3 cells [3]; IR 0 Gy + β-Lap 3 μM,3 µM
same,Equivalent dose of IR,PC-3 cells [3]; IR 1 Gy + β-Lap 1 μM,1.7 Gy
same,Equivalent dose of β-Lap,PC-3 cells [3]; IR 1 Gy + β-Lap 1 μM,4.1 µM
same,Equivalent dose of IR,PC-3 cells [3]; IR 1 Gy + β-Lap 2 μM,2.1 Gy
same,Equivalent dose of β-Lap,PC-3 cells [3]; IR 1 Gy + β-Lap 2 μM,5.6 µM
same,Equivalent dose of IR,PC-3 cells [3]; IR 1 Gy + β-Lap 3 μM,2.7 Gy
same,Equivalent dose of β-Lap,PC-3 cells [3]; IR 1 Gy + β-Lap 3 μM,6.8 µM
same,Equivalent dose of IR,PC-3 cells [3]; IR 2 Gy + β-Lap 1 μM,2.6 Gy
same,Equivalent dose of β-Lap,PC-3 cells [3]; IR 2 Gy + β-Lap 1 μM,7.9 µM
same,Equivalent dose of IR,PC-3 cells [3]; IR 2 Gy + β-Lap 2 μM,3.1 Gy
same,Equivalent dose of β-Lap,PC-3 cells [3]; IR 2 Gy + β-Lap 2 μM,9.6 µM
same,Equivalent dose of IR,PC-3 cells [3]; IR 2 Gy + β-Lap 3 μM,3.6 Gy
same,Equivalent dose of β-Lap,PC-3 cells [3]; IR 2 Gy + β-Lap 3 μM,11.5 µM
same,Equivalent dose of IR,PC-3 cells [3]; IR 3 Gy + β-Lap 1 μM,3.7 Gy
same,Equivalent dose of β-Lap,PC-3 cells [3]; IR 3 Gy + β-Lap 1 μM,12.5 µM
same,Equivalent dose of IR,PC-3 cells [3]; IR 3 Gy + β-Lap 2 μM,4.1 Gy
same,Equivalent dose of β-Lap,PC-3 cells [3]; IR 3 Gy + β-Lap 2 μM,14.5 µM
same,Equivalent dose of IR,PC-3 cells [3]; IR 3 Gy + β-Lap 3 μM,4.6 Gy
same,Equivalent dose of β-Lap,PC-3 cells [3]; IR 3 Gy + β-Lap 3 μM,16 µM
same,"NQO1 activity, β-Lap",NQO1,1940 ± 12 nmol/min/µg
same,Lethality,NQO1+ human cancer cells; 1-2 μM treatments for 2-4 h,not lethal
same,Cell death responses (TUNEL staining),NQO1+ human cancer cells; 2-3 μM for 2-4 h,> 90%
